Earlier results as cited in PMC9255981 (The Oncologist, 2022).

System: patients
Conditions: phase I study ref [1],[2]

C=CC(=O)N1CCN(c2nc(=O)n(-c3c(C)ccnc3C(C)C)c3nc(-c4c(O)cccc4F)c(F)cc23)[C@@H](C)C1 [sotorasib]
grade of blood CPK increase events (all events): 1
Myalgia, regardless of causality: 10 % of patients
blood CPK increase: 3.9%
most frequent treatment-related AEs (>10%): diarrhea, AST increased, and ALT increased
